Series [1] can be described thus: Plasma stability, mouse. It is filed as in vitro ADME. The following applies: percent remaining at 3 hours. On the procedure:
Stability of compounds in human plasma (BioChemed Services) and mouse plasma (BioChemed Services) were determined. All liquid was dispensed and transfer steps were performed with the FREEDOM EVO automated liquid handler (Tecan US). Plasma was allowed to thaw at room temperature prior to preparing the assay solution of plasma:1×PBS (1:1). The assay solution was warmed up at 37° C. prior of adding the compound. Immediately after compounds were added, time 0 minute aliquots were promptly collected and mixed with cold acetonitrile (spiked with an internal standard). The remainder of the reaction volume was incubated at 37° C. with shaking. Additional aliquots were collected 180 minutes after the start of the reaction and promptly quenched with cold acetonitrile (spiked with an internal standard). Samples were centrifuged at 3000 rpm for 10 minutes. The amount of compound in the supernatant was determined by LC/MS/MS (Applied Biosystems, Sciex API4000 Q-TRAP) and the percent of parent compound remaining after 180 minutes was calculated by the following formula: % parent compound remaining=[(concentration at 180 minutes/concentration at 0 minutes)×100]. Results reported are the mean of each reaction duplicate, normalized to the internal standard, and expressed as a percent of compound remaining after the incubation time. […]

Series [2] in a line: in vitro. It is filed as cell-based. The following applies: human. On the procedure:
Immortalized human hepatocytes, Fa2N-4 cells (XenoTech) were seeded at ˜50,000 cells/well, and incubated with a range of concentrations (0.01-50 μM) of compound 17, in duplicate, for 24 hours at 37° C., 5% CO2. Cell viability was determined by cellular ATP levels using the Luminescence ATP Detection Assay System (ATPLITE 1 step, Perkin Elmer) and the Infinite M200 plate reader (Tecan). Camptothecin (highly toxic) and Terfenadine (highly non-toxic) were used as standards. Final DMSO concentration was 0.5%.

Series [3] in a line: Plasma protein binding (RED), human. It is filed as in vitro ADME. On the procedure:
TEFLON Base Plate wells were rinsed with 20% ethanol for 10 minutes. Ethanol was then removed and wells were rinsed with ultrapure water and allowed to dry. RED (rapid equilibrium dialysis) inserts from Thermo Scientific (Pierce) were placed (open end up) into the wells of the base plate. All liquid was dispensed and transfer steps were performed with the FREEDOM EVO automated liquid handler (Tecan US). The sample chambers (red ring) contained 300 μl of a mixture of plasma and compound, and the buffer chambers received 500 μl of dialysis buffer (1×PBS, pH7.4). Duplicate inserts were made for each concentration tested. The base plate was covered with sealing tape and incubated at 37° C. on an orbital shaker at 350 rpm for 4 hours. After the incubation time, equal volumes from both chambers were removed and transferred to a 96 well plate containing either plasma or buffer. […] The amount of compound in the supernatant was determined by LC/MS/MS (Applied Biosystems, Sciex API4000 Q-Trap). The percent of free and bound compounds were calculated with the following formula: % of bound parent compound=[(amount of compound in donor-receiver/amount of compound in donor)×100]. Results reported are the mean of each reaction duplicate, normalized to the internal standard, and expressed as a percent compound bound after the incubation time. […]

Series [4] deals with NS3 protease in Huh7.5/HCV Con1sg Rluc cells. In words: IPS-1 (MAVS)-based reporter cell-based protease assay. The arrangement: species or system hepatitis C virus. The following applies: 10 μM, 72 hours.
Protocol: An IPS-1 (also known as MAVS)-based reporter assay was used for cell-based protease assay. […] RFP-NLS-IPS pseudoparticles were transduced into Huh7.5/HCV Con1sg Rluc cells in a 24-well plate containing cover slips and compounds were added to the cells after 6 hours at a 10 μM concentration and after 72 hours from the first addition, cells were fixed in 1% PFA, washed twice with PBS, mounted on glass slides and microscopic analyses were done.
Microscopy was performed with a Nikon Ti-E inverted fluorescence microscope using a 20× and 40×/NA 1.4 objective. Compounds were imaged using DAPI filter 340/40 band-pass excitation and a 435/50 band pass emission filter. For ALEXA 546 and RFP-NLS-IPS, a 528/25 nm band pass excitation filter and 590/60 nm band-pass emission filter were used. Image acquisition was performed with a Q imaging ROLERA camera and the NIS elements basic research imaging software (Nikon). […]
The assay selected (Jones, et al. (2010) supra) uses a fusion protein made from a NS3 protease cellular target called IPS-1 (also known as MAVS) fused to a red fluorescent protein (RFP) and a nuclear localization signal (NLS). Lentivirus expressing the RFP-NLS-IPS-1 was used to transduce the above Rluc subgenomic HCV replicon cell line, and the effect of compounds on the location of RFP-NLS was examined using fluorescence microscopy.
In series [5] the test system is NS5A in Huh7.5/HCV Con1sg Rluc replicon cells. In words: Western blot of NS5A in replicon cells. It is filed as cell-based, hepatitis C virus. The following applies: 4-day exposure. The procedure:
To analyze effects on HCV proteins expression by western blot, Huh7.5/HCV Con1sg Rluc replicon stable cells were washed with PBS, harvested in PBS, and lysed with RIPA buffer for 20 minutes on ice and cleared lysates were obtained by centrifugation at 14,000 rpm for 20 minutes at 4° C. Protein concentrations were determined with the BIO-RAD protein assay kit (Bio-Rad) and 15 μg total proteins was resolved on 10% sodium dodecyl sulfate-polyacrylamide gel electrophoresis (SDS-PAGE) and transferred to nitrocellulose membrane. The blots were probed with primary anti-NS5A mAb (Meridian life Sciences, Saco, Me.) and a peroxidase-conjugated secondary antibody (Cell Signaling, Danvers, Mass.) and were developed with enhanced chemiluminescence (ECL) detection reagents (Pierce, Rockford, Ill.). The blots were stripped and probed again with primary anti-tubulin antibody (Sigma) to confirm equal loading of protein and a peroxidase-conjugated anti-mouse secondary antibody (Cell Signaling) and developed with ECL reagents (Pierce).
To further characterize the anti-viral activity of this class of compounds, HCV Renilla luciferase (Rluc) subgenomic replicon cells were exposed to different concentrations of compound 24 and the effect of compound 24 on HCV replication was assessed on HCV Rluc reporter gene activity. […]

Series [6] deals with HCV replicon RNA. In words: HCV RNA RT-qPCR assay in replicon cells. It is filed as cell-based, hepatitis C virus. Conditions: qRT-PCR, 10 days of treatment.
Protocol: For the HCV RNA reverse transciptase quantitative PCR (RT-qPCR) assay, cells were treated, washed 2 times with PBS, harvested, and collected by centrifugation (1000 g) for 5 minutes at 4° C. Total RNA was then extracted using the TRIZOL kit (Invitrogen) and suspended in 30 μL of nuclease-free water. RNA concentration was determined from A260. RT-qPCR was performed using TAQMAN probes, 1 μg total RNA and the QSCRIPT One-step Fast qRT-PCR kit (Quanta Biosciences, Gaithersburg, Md.). Reverse transcription was carried out at 50° C. for 20 minutes followed by one cycle at 95° C. for 5 minutes and 40 cycles at 95° C. for 15 seconds and 60° C. for 1 minute. […] The amount of HCV RNA in each sample was determined by first calculating the ΔCT of each sample, which was obtained by subtracting the threshold cycle (CT) obtained with the rRNA primers obtained from that of the CT with the HCV primers. ΔΔCT values were obtained by subtracting ΔCT values obtained in the presence of compound from ΔCT obtained with cells treated with DMSO only. The relative changes in HCV RNA levels were then calculated by assuming that each CT difference reflected a two-fold difference in RNA level (i.e., Expression=2^−ΔΔCT).

As to `Cc1ccc2nc(-c3ccc4nc(-c5ccc(NC(=O)c6cccc(Cl)c6)cc5)sc4c3)sc2c1S(=O)(=O)O` [Compound 17, 2′-(4-(3-chlorobenzamido)phenyl)-6-methyl-[2,6′-bibenzo[d]thiazole]-7-sulfonic acid], in series [1], the “Plasma Stability Mouse” value stood at 95.0%. The CC50 at 24 h in series [2] is above 50 µM. For the same compound, the fraction unbound at 4 h, 1 μM in series [3] (pH 7.4, 1 μM, read-out: Plasma Protein Binding (% Bound) Human (converted)) was 0.02. In series [3] (pH 7.4, 10 μM, read-out: Plasma Protein Binding (% Bound) Human), the fraction unbound at 4 h, 10 μM amounted to 0.01.
In the case of `Cc1ccc2nc(-c3ccc4nc(-c5ccc(NC(=O)c6cc(C(F)(F)F)cc(C(F)(F)F)c6)cc5)sc4c3)sc2c1S(=O)(=O)O` [Compound 24, 2′-(4-(3,5-bis(trifluoromethyl)benzamido)phenyl)-6-methyl-[2,6′-bibenzo[d]thiazole]-7-sulfonic acid], the “nuclear translocation of RFP-NLS (cellular NS3 protease activity)” value in series [4] is reported as “did not inhibit nuclear translocation”. Moreover, the “cellular NS5A levels” value in series [5] was “reduced NS5A levels in a time-dependent manner”. The “decrease of HCV replicon RNA content” value in series [6] is reported as “about 13 fold”.

By CC50 is commonly meant the concentration that lowers cell viability or growth by half.

(Values after patent US9464064B2, “HCV helicase inhibitors and methods of use thereof” (University of Kansas, priority 2011, dated 2016).)
